Results on ten molecules are retold here after ChEMBL document CHEMBL1201862, “PubChem BioAssay data set” (2004).

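Exposure lasted 48 hours, with cells grown in 96-well plates and compounds tested at five concentrations. Here, GI50 denotes the concentration required for 50% inhibition of growth.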 Calls of active or inactive are those of the source. Rule as the data show it: active = GI50 up to about 1.1 µM and inactive = higher.

Among the test systems are NCI-H23; CAKI-1; MDA-MB-231; IGROV-1; HOP-92; 786-0; SF-268; PC-3; OVCAR-3; MOLT-4; SNB-19; OVCAR-4; MDA-N; HCT-116; NCI-H226; BT-549; Hs-578T; KM12; HCT-15; SW-620.
Assay in all cases: NCI tumour cell line growth inhibition, 48 h

As to `Nc1nc(SCc2ccccc2)c2ncn(Cc3ccccc3)c2n1`, the GI50 in the experiment on NCI-H23 is > 67.8 µM (inactive); in the experiment on CAKI-1 it was 30.1 µM (inactive); in the experiment on MDA-MB-231, > 100 µM (inactive); with IGROV-1 it was > 100 µM (inactive); in the experiment on HOP-92 it was > 85.9 µM (inactive); with 786-0, > 100 µM (inactive). Besides, the GI50 in the experiment on SF-268 was > 84.7 µM (inactive); with PC-3, > 100 µM (inactive); in the experiment on OVCAR-3 it was > 67.5 µM (inactive); in the experiment on MOLT-4 it was > 100 µM (inactive); with SNB-19, > 100 µM (inactive); in the experiment on OVCAR-4, > 100 µM (inactive). The GI50 is > 100 µM (inactive) with MDA-N; > 100 µM (inactive) in the experiment with HCT-116; > 100 µM (inactive) with NCI-H226; > 100 µM (inactive) with BT-549; > 100 µM (inactive) with Hs-578T; > 86.9 µM (inactive) in the experiment with KM12. For the same molecule, the figures for the GI50 in the experiment on HCT-15 and in the experiment on SW-620 were above 81.3 µM and > 100 µM (inactive), respectively.

`Cc1cc(C(=O)CSC(=S)SC(C)(C)C)ccc1Cl`: the GI50 with NCI-H23 was 29.5 µM (inactive); in the experiment with CAKI-1, 34.2 µM (inactive); in the experiment on MDA-MB-231 it was 19.7 µM (inactive); in the experiment on IGROV-1, 33.1 µM (inactive); in the experiment on HOP-92 it was 24.8 µM (inactive); with 786-0, 22.3 µM (inactive). For the same molecule, the GI50 in the experiment on SF-268 is 18.2 µM (inactive); in the experiment on PC-3 it was 29.8 µM (inactive); with OVCAR-3, 16.4 µM (inactive); with MOLT-4, 13.8 µM (inactive); in the experiment on SNB-19, 16 µM (inactive); with OVCAR-4 it was 31 µM (inactive). The GI50 with MDA-N was 15.8 µM (inactive); in the experiment with HCT-116, 18.7 µM (inactive); in the experiment on NCI-H226, 27 µM (inactive); with BT-549 it was 21.9 µM (inactive); with Hs-578T it was 25.5 µM (inactive); in the experiment on KM12 it was 20 µM (inactive). The GI50 was 22.3 µM with HCT-15 and 23.2 µM (inactive) in the experiment with SW-620.

In the case of `CN(C)CCCN1c2ccccc2Sc2ccc3ccccc3c21`, the GI50 with NCI-H23 is 14.3 µM (inactive); with CAKI-1, 5.13 µM (inactive); in the experiment on MDA-MB-231, 3.15 µM (inactive); with IGROV-1 it was 8.67 µM (inactive); in the experiment with HOP-92, 5.52 µM (inactive); in the experiment with 786-0, 11 µM (inactive). Besides, the GI50 with SF-268 was 9.06 µM (inactive); in the experiment on PC-3, 3.75 µM (inactive); with OVCAR-3, 8.49 µM (inactive); in the experiment with MOLT-4 it was 2.92 µM (inactive); with SNB-19 it was 14.8 µM (inactive); in the experiment on OVCAR-4 it was 5.35 µM (inactive). The GI50 in the experiment on MDA-N was 4.12 µM (inactive); in the experiment with HCT-116 it was 10.2 µM (inactive); in the experiment with NCI-H226, 6.58 µM (inactive); in the experiment on BT-549, 13.1 µM (inactive); in the experiment with Hs-578T, 8.73 µM (inactive); in the experiment on KM12 it was 6.58 µM (inactive). Besides, the GI50 in the experiment on HCT-15 is 6.43 µM; in the experiment on SW-620 it was 8.3 µM (inactive).

As to `O=C(c1ccccc1)c1ccc2[nH]c(-c3c(Cl)c(Cl)c(Cl)c(Cl)c3C(=O)N/N=C/c3ccc(Cl)cc3)nc2c1`, the GI50 in the experiment with NCI-H23 was 30.1 µM (inactive); in the experiment with CAKI-1 it was 61.8 µM (inactive); with MDA-MB-231 it was 20.7 µM (inactive); in the experiment on IGROV-1, 33 µM (inactive); in the experiment on HOP-92, 43.6 µM (inactive); with 786-0, 31.2 µM (inactive). Moreover, the GI50 is 40.7 µM (inactive) in the experiment with SF-268; 37 µM (inactive) with PC-3; 17.5 µM (inactive) with OVCAR-3; 18.3 µM (inactive) in the experiment on MOLT-4; 43 µM (inactive) in the experiment on SNB-19; 30.3 µM (inactive) with OVCAR-4. Moreover, the GI50 in the experiment on MDA-N was 29.8 µM (inactive); in the experiment on HCT-116 it was 44.6 µM (inactive); in the experiment with NCI-H226 it was 39.8 µM (inactive); in the experiment with BT-549, 33.7 µM (inactive); in the experiment on Hs-578T, 57.9 µM (inactive); in the experiment on KM12, 48.4 µM (inactive). Also, the GI50 with HCT-15 was 24.2 µM; in the experiment on SW-620, 54.3 µM (inactive).

With `CCN1CCCCC(=N\O)/C(=N/O)CCCC1`, the GI50 with NCI-H23, with CAKI-1, in the experiment with MDA-MB-231, in the experiment with IGROV-1, in the experiment with HOP-92 and in the experiment with 786-0 was > 100 µM (inactive) in each case. Also, the GI50 with SF-268, in the experiment on PC-3, with OVCAR-3, with MOLT-4, in the experiment on SNB-19 and in the experiment on OVCAR-4 was > 100 µM (inactive) in each case. The GI50 in the experiment with MDA-N, in the experiment with HCT-116, in the experiment on NCI-H226, in the experiment with BT-549, in the experiment on Hs-578T and with KM12 was > 100 µM (inactive) in each case. The GI50 is above 100 µM in the experiment with HCT-15 and > 100 µM (inactive) with SW-620.

For the molecule `CC(C)(CO)NC1=C(Cl)C(=O)c2c(O)ccc(O)c2C1=O`, the GI50 is 1.58 µM (inactive) in the experiment on NCI-H23; 1.96 µM (inactive) with CAKI-1; 1.61 µM (inactive) with MDA-MB-231; 1.58 µM (inactive) in the experiment with IGROV-1; 1.85 µM (inactive) in the experiment with HOP-92; 1.46 µM (inactive) with 786-0. The GI50 is 2.61 µM (inactive) in the experiment with SF-268; 1.87 µM (inactive) with PC-3; 1.55 µM (inactive) with OVCAR-3; 0.568 µM (active) in the experiment on MOLT-4; 1.77 µM (inactive) with SNB-19; 1.57 µM (inactive) in the experiment on OVCAR-4. The GI50 with MDA-N was 0.885 µM (active); in the experiment on HCT-116 it was 1.57 µM (inactive); with NCI-H226 it was 2.16 µM (inactive); with BT-549 it was 0.942 µM (active); in the experiment with Hs-578T, 0.743 µM (active); with KM12, 1.43 µM (inactive). Also, the GI50 with HCT-15 was 0.557 µM; in the experiment on SW-620, 0.327 µM (active).

In the case of `COc1cc(/C=C(\C)[N+](=O)[O-])cc(OC)c1`, the GI50 in the experiment with NCI-H23 was 19.1 µM (inactive); in the experiment on CAKI-1, 14.5 µM (inactive); in the experiment on MDA-MB-231 it was 16.7 µM (inactive); in the experiment on IGROV-1, 6.46 µM (inactive); with HOP-92, 13.5 µM (inactive); with 786-0, 4.59 µM (inactive). The GI50 with SF-268 was 19.3 µM (inactive); in the experiment on PC-3, 20.1 µM (inactive); with OVCAR-3, 17.8 µM (inactive); in the experiment with MOLT-4 it was 2.57 µM (inactive); with SNB-19, > 40.9 µM (inactive); in the experiment on OVCAR-4 it was 18.1 µM (inactive). Besides, the GI50 in the experiment on MDA-N is 13 µM (inactive); in the experiment with HCT-116, 16.1 µM (inactive); in the experiment with NCI-H226, > 52.5 µM (inactive); with BT-549, 19.2 µM (inactive); in the experiment with Hs-578T, 26.9 µM (inactive); in the experiment with KM12 it was 19.3 µM (inactive). The GI50 is 12.6 µM in the experiment with HCT-15 and 4.49 µM (inactive) in the experiment on SW-620.

Consider `Cc1[nH]c2ncn3ncnc3c2c1Cc1ccccc1`, for which the GI50 with NCI-H23 was 91.6 µM (inactive); in the experiment with CAKI-1 it was > 100 µM (inactive); in the experiment with MDA-MB-231 it was > 100 µM (inactive); in the experiment on IGROV-1 it was 92.7 µM (inactive); in the experiment with HOP-92, 54.1 µM (inactive); with 786-0, > 100 µM (inactive). In addition, the GI50 in the experiment on SF-268, with PC-3, in the experiment with OVCAR-3, with MOLT-4, with SNB-19 and with OVCAR-4 was > 100 µM (inactive) throughout. Moreover, the GI50 in the experiment on MDA-N, with HCT-116, in the experiment with NCI-H226, in the experiment with BT-549, in the experiment with Hs-578T and in the experiment on KM12 was > 100 µM (inactive) throughout. In addition, the figures for the GI50 in the experiment on HCT-15 and in the experiment on SW-620 were above 100 µM and > 100 µM (inactive), respectively.

Consider `CC(=O)/C(=C/NC(=S)c1cccnc1)C(=O)Nc1ccccc1C`, for which the GI50 in the experiment with NCI-H23 is > 100 µM (inactive); in the experiment on CAKI-1, 41.3 µM (inactive); in the experiment on MDA-MB-231, > 100 µM (inactive); in the experiment with IGROV-1, > 100 µM (inactive); with HOP-92, > 100 µM (inactive); in the experiment with 786-0, > 100 µM (inactive). Also, the GI50 is > 100 µM (inactive) in the experiment on SF-268; 68.9 µM (inactive) with PC-3; 82.6 µM (inactive) in the experiment on OVCAR-3; > 100 µM (inactive) with MOLT-4; > 100 µM (inactive) with SNB-19; > 100 µM (inactive) in the experiment on OVCAR-4. For the same molecule, the GI50 with MDA-N is > 100 µM (inactive); with HCT-116 it was 83 µM (inactive); in the experiment on NCI-H226 it was > 100 µM (inactive); in the experiment with BT-549, > 100 µM (inactive); in the experiment with Hs-578T, > 100 µM (inactive); in the experiment on KM12, > 100 µM (inactive). Further, the GI50 in the experiment with HCT-15 was above 100 µM; in the experiment on SW-620, > 100 µM (inactive).

Turning to `Oc1cc(-c2cccc(Cl)c2)nc2ncccc12`, the GI50 is 1.54 µM (inactive) in the experiment on NCI-H23; 0.101 µM (active) in the experiment on CAKI-1; 0.57 µM (active) in the experiment on MDA-MB-231; 0.0813 µM (active) with IGROV-1; 21 µM (inactive) with HOP-92; 0.249 µM (active) in the experiment with 786-0. The GI50 in the experiment with SF-268 is 5.53 µM (inactive); with PC-3 it was 0.0248 µM (active); in the experiment on OVCAR-3 it was 0.0466 µM (active); in the experiment with MOLT-4, 0.0545 µM (active); with SNB-19, 0.192 µM (active); in the experiment on OVCAR-4 it was > 66.7 µM (inactive). The GI50 with MDA-N is 0.0132 µM (active); with HCT-116 it was 0.0312 µM (active); in the experiment with NCI-H226, 0.378 µM (active); with BT-549, 7.33 µM (inactive); with Hs-578T it was 0.084 µM (active); in the experiment with KM12 it was 0.0515 µM (active). Also, the results for the GI50 with HCT-15 and with SW-620 were 0.0489 µM and 0.114 µM (active), respectively.
